In US6090828A, “5-aryleheteroarylalkyl-1,3,5-trisubstituted-1,2,4-triazole compounds for treatment of circulatory disorders” (priority 1997, dated 2000):
Where two headings read alike, the source gives them in different places.

Key:
[1] = molecular target: smooth muscle angiotensin II receptor; test: Assay A: Angiotensin II Binding Activity; details: 50% displacement of specifically bound 125I-AII; rat uterine membranes; pH 7.5; 25° C., 60 min
Description: Compounds of the invention were tested for ability to bind to the smooth muscle angiotensin II receptor using a rat uterine membrane preparation. […] Rat uterine membranes were prepared from fresh tissue. All procedures were carried out at 4° C. Uteri were stripped of fat and homogenized in phosphate-buffered saline at pH 7.4 containing 5 mM EDTA. The homogenate was centrifuged at 1500×g for 20 min., and the supernatant was recentrifuged at 100,000×g for 60 min. The pellet was resuspended in buffer consisting of 2 mM EDTA and 50 mM Tris-HCl (pH 7.5) to a final protein concentration of 4 mg/ml. […] The reaction was initiated by the addition of membrane protein and the mixture was incubated at 25° C. for 60 min. The incubation was terminated with ice-cold 50 mM Tris-HCl (pH 7.5) and the mixture was filtered to separate membrane-bound labelled peptide from the free ligand. The incubation tube and filter were washed with ice-cold buffer. Filters were assayed for radioactivity in a Micromedic gamma counter. Nonspecific binding was defined as binding in the presence of 10 μM of unlabelled AII. Specific binding was calculated as total binding minus nonspecific binding. […] Binding data were analyzed by a nonlinear least-squares curve fitting program.

pressor response to AII = test: Assay C: In Vivo Intragastric Pressor Assay Response for AII Antagonists; set-up: species or system rat (male Sprague-Dawley); details: 3 mg/kg (i.g.), AII 30 ng/kg i.v. bolus; for Duration: followed to 180 minutes; for inhibition in vivo at 3 mg/kg: Rattus norvegicus, po
Description: The catheters were tunneled subcutaneously to exit dorsally, posterior to the head and between the scapulae. The catheters were filled with heparin (1000 units/ml of saline). The rats were returned to their cage and allowed regular rat chow and water ad libitum. After full recovery from surgery (3-4 days), rats were placed in Lucite holders and the arterial line was connected to a pressure transducer. Arterial pressure was recorded on a Gould polygraph (mmHg). Angiotensin II was administered as a 30 ng/kg bolus via the venous catheter delivered in a 50 μl volume with a 0.2 ml saline flush. The pressor response in mm Hg was measured by the difference from pre-injection arterial pressure to the maximum pressure achieved. The AII injection was repeated every 10 minutes until three consecutive injections yielded responses within 4 mmHg of each other. These three responses were then averaged and represented the control response to AII. The test compound was suspended in 0.5% methylcellulose in water and was administered by gavage. The volume administered was 2 ml/kg body weight. The standard dose was 3 mg/kg. Angiotensin II bolus injections were given at 30, 45, 60, 75, 120, 150, and 180 minutes after gavage. The pressor response to AII was measured at each time point. The rats were then returned to their cage for future testing. A minimum of 3 days was allowed between tests. Percent inhibition was calculated for each time point following gavage by the following formula: [(Control Response-Response at time point)/Control Response]×100.

rabbit aortic rings = molecular target: T1, rabbit aortic rings (Oryctolagus cuniculus, UniProt P34976); test: Assay B: In Vitro Vascular Smooth Muscle Response for AII; set-up: species or system rabbit (male New Zealand white); details: rabbit aorta rings, two rabbits per antagonist, antagonist 10^-5 M, 5 minutes, AII contraction, Schild
T1 construct: The thoracic aorta was removed, cleaned of adherent fat and connective tissue and then cut into 3-mm ring segments; from tissue; host or cells: rabbit thoracic aorta rings, endothelium removed
T1 sequence (P34976 1-359): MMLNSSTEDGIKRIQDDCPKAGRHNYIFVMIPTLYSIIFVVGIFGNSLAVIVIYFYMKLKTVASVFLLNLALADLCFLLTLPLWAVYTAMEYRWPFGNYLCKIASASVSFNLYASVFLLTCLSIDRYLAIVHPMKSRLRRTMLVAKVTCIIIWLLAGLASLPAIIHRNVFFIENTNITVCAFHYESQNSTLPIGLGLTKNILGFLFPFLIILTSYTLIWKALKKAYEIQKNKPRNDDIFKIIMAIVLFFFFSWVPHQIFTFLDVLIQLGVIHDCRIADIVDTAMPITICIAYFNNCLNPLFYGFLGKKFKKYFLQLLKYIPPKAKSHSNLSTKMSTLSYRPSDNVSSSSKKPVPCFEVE
Description: The compounds of the invention were tested for antagonist activity in rabbit aortic rings. Male New Zealand white rabbits (2-2.5 kg) were sacrificed using an overdose of pentobarbital and exsanguinated via the carotid arteries. The thoracic aorta was removed, cleaned of adherent fat and connective tissue and then cut into 3-mm ring segments. The endothelium was removed from the rings by gently sliding a rolled-up piece of filter paper into the vessel lumen. The rings were then mounted in a water-jacketed tissue bath, maintained at 37° C., between moveable and fixed ends of a stainless steel wire with the moveable end attached to an FT03 Grass transducer coupled to a Model 7D Grass Polygraph for recording isometric force responses. […] The preparations were equilibrated for one hour before approximately one gram of passive tension was placed on the rings. Angiotensin II concentration-response curves were then recorded (3×10^-10 to 1×10^-5 M). Each concentration of AII was allowed to elicit its maximal contraction, and then AII was washed out repeatedly for 30 minutes before rechallenging with a higher concentration of AII. Aorta rings were exposed to the test antagonist at 10^-5 M for 5 minutes before challenging with AII. Adjacent segments of the same aorta ring were used for all concentration-response curves in the presence or absence of the test antagonist. […] The pA2 value is the concentration of the antagonist which increases the EC50 value for AII by a factor of two. Each test antagonist was evaluated in aorta rings from two rabbits.

angiotensin II receptor = details: cited from earlier work; for angiotensin II antagonist activity: binding experiments, functional assays and in vivo tests, literature
[2] = read-out: pA2 (first of two values) (converted)
[3] = read-out: pA2 (second of two values) (converted)

Row | IC50 [1] [µM] | Kb (rabbit aortic rings; [2]) [µM] | Kb (rabbit aortic rings; [3]) [µM] | Compound | Inhibition (pressor response to AII; conscious rats) [%] | Duration (pressor response to AII) [min] | pA2 (first of two values) (rabbit aortic rings) | pA2 (second of two values) (rabbit aortic rings) | angiotensin II antagonist activity (angiotensin II receptor) | inhibition in vivo at 3 mg/kg (pressor response to AII; conscious rats) [%] | residual agonist activity (angiotensin II receptor; background statement)
1 |  |  |  | CCCCc1nc(Cl)c(CC(=O)O)n1Cc1ccccc1[N+](=O)[O-] [2-butyl-4-choloro-1-(2-nitrobenzyl)imidazole-5-acetic acid] |  |  |  |  | specific competitive angiotensin II antagonist activity |  | 
2 | 0.15 | 0.0166 | 0.0263 | CCCn1nc(C(F)(F)CCC)nc1Cc1ccc(-c2ccccc2-c2nnn[nH]2)nc1 [Example 20, 5-[2-[5-[[1-propyl-3-(1,1-difluorobutyl)-1H-1,2,4-triazol-5-yl]methyl]-2-pyridinyl]phenyl]-1H-tetrazole] |  | 180 |  |  |  | 15 | 
3 | 0.054 | 0.00589 | 0.00724 | CCCCn1nc(-c2ccccc2Cl)nc1Cc1ccc(-c2ccccc2-c2nnn[nH]2)nc1 [Example 9, 5-[2-[5-[[1-butyl-3-(2-chlorophenyl)-1H-1,2,4-triazol-5-yl]methyl]-2-pyridinyl]phenyl]-1H-tetrazole] |  | > 180 |  |  |  | 30 | 
4 | 0.021 | 0.02 | 0.0759 | CCCCn1nc(C2OCC(C)(C)CO2)nc1Cc1ccc(-c2ccccc2-c2nnn[nH]2)nc1 [Example 32, 5-[2-[5-[[1-butyl-3-[2-(5,5-dimethyl-1,3-dioxanyl)]-1H-1,2,4-triazol-5-yl]methyl]-2-pyridinyl]phenyl]-1H-tetrazole] |  | 180 |  |  |  | 20 | 
5 | 0.028 | 0.0302 | 0.0776 | CCCCn1nc(C(=O)N(C)C(C)(C)C)nc1Cc1ccc(-c2ccccc2-c2nnn[nH]2)nc1 [Example 22, 5-[2-[5-[[1-butyl-3-(N-methyl-N-tertbutylamido)-1H-1,2,4-triazol-5-yl]methyl]-2-pyridinyl]phenyl]-1H-tetrazole] |  | 0 |  |  |  | 0 | 
6 | 0.013 | 0.00501 | 0.0204 | CCCCn1nc(CCc2cccs2)nc1Cc1ccc(-c2ccccc2-c2nnn[nH]2)nc1 [Example 4, 5-[2-[5-[[1-butyl-3-[2-(2-thienyl)ethyl]-1H-1,2,4-triazol-5-yl]methyl]-2-pyridinyl]phenyl]-1H-tetrazole] |  | > 180 |  |  |  | 25 | 
7 | 0.027 |  |  | CCCCn1nc(C(OC)OC)nc1Cc1ccc(-c2ccccc2-c2nnn[nH]2)nc1 [Example 26, 5-[2-[5-[[1-butyl-3-dimethoxymethyl-1H-1,2,4-triazol-5-yl]methyl]-2-pyridinyl]phenyl]-1H-tetrazole] |  | 0 |  |  |  | 0 | 
8 |  |  |  | CNCC(=O)N[C@@H](CCCN=C(N)N)C(=O)N[C@H](C(=O)N[C@@H](Cc1ccc(O)cc1)C(=O)N[C@H](C(=O)N[C@@H](Cc1cnc[nH]1)C(=O)N1CCC[C@H]1C(=O)N[C@@H](C)C(=O)O)C(C)C)C(C)C [Saralasin] |  |  |  |  |  |  | significant residual agonist activity
9 | 0.026 | 0.0832 | 0.017 | CCCCn1nc(C(F)(F)CCC)nc1Cc1ccc(-c2ccccc2-c2nnn[nH]2)nc1 [Example 21, 5-[2-[5-[[1-butyl-3-(1,1-difluorobutyl)-1H-1,2,4-triazol-5-yl]methyl]-2-pyridinyl]phenyl]-1H-tetrazole] |  | > 180 |  |  |  | 40 | 
10 | 0.0098 | 0.0204 | 0.0282 | CCCCn1nc(C(OCC)OCC)nc1Cc1ccc(-c2ccccc2-c2nnn[nH]2)nc1 [Example 27, 5-[2-[5-[[1-butyl-3-diethoxymethyl-1H-1,2,4-triazol-5-yl]methyl]-2-pyridinyl]phenyl]-1H-tetrazole] |  | 150 |  |  |  | 10 | 
11 | 0.014 | 0.00933 | 0.0158 | CCCCc1nc(Cc2ccc(-c3ccccc3-c3nnn[nH]3)nc2)n(CCCC)n1 [Example 1, 5-[2-[5-[(1,3-dibutyl-1H,1,2,4-triazol-5-yl)methyl]-2-pyridinyl]phenyl]-1H-tetrazole] |  | > 180 |  |  |  | 25 | 
12 |  |  |  | CCCCc1nc(Cl)c(CC(=O)O)n1Cc1ccccc1Cl [2-n-butyl-4-chloro-1-(2-chlorobenzyl)imidazole-5-acetic acid] |  |  |  |  | specific competitive angiotensin II antagonist activity |  | 
13 | 0.02 | 0.0275 | 0.0708 | CCCCn1nc(C2OCCCO2)nc1Cc1ccc(-c2ccccc2-c2nnn[nH]2)nc1 [Example 31, 5-[2-[5-[[1-butyl-3-[2-(1,3-dioxanyl)]-1H-1,2,4-triazol-5-yl]methyl]-2-pyridinyl]phenyl]-1H-tetrazole] |  | 180 |  |  |  | 25 | 
14 | 0.021 | 0.012 | 0.0275 | CCCCn1nc(C(O)CCC)nc1Cc1ccc(-c2ccccc2-c2nnn[nH]2)nc1 (stereo not shown) [Example 10, 5-[2-[5-[[1-butyl-3-(1-hydroxybutyl)-1H-1,2,4-triazol-5-yl]methyl]-2-pyridinyl]phenyl]-1H-tetrazole] |  | 150 |  |  |  | 10 | 

Row | Compound | IC50 [1] [µM] | Kb (rabbit aortic rings; [2]) [µM] | Kb (rabbit aortic rings; [3]) [µM] | Inhibition (pressor response to AII; conscious rats) [%] | Duration (pressor response to AII) [min] | pA2 (first of two values) (rabbit aortic rings) | pA2 (second of two values) (rabbit aortic rings) | angiotensin II antagonist activity (angiotensin II receptor) | inhibition in vivo at 3 mg/kg (pressor response to AII; conscious rats) [%] | residual agonist activity (angiotensin II receptor; background statement)
15 | 5-[2-[5-[(1-butyl-3-propyl-1H-1,2,4-triazol-5-yl)methyl]-2-pyridinyl]phenyl]-1H-tetrazole [Example 3] | 0.15 |  |  | 10 | 140 | 7.46 | 7.23 |  |  | 
